Calls of active or inactive are those of the source. The calls are words filed in the database; no cut-off is given here.
Legend:
[1] = Cytotoxicity against human HepG2 cells assessed as cell viability at 20 uM after 24 hrs by CCK8 assay; assay type: toxicity, cell-based; settings: read-out: Activity
[2] = biological target: Proprotein convertase subtilisin/kexin type 9 (Homo sapiens) (UniProt Q8NBP7); assay: Inhibition of PCSK9 transcription in human HepG2 cells at 5 uM by AlphaLISA method; assay type: cell-based
HepG2 [3] = assay: Induction of LDL uptake in human HepG2 cells incubated for 3 hrs under dark condition by DiI-LDL DMEM staining based fluorescence microplate reader assay; assay type: functional, cell-based
[4] = biological target: Proprotein convertase subtilisin/kexin type 9 (Homo sapiens) (UniProt Q8NBP7); assay: Inhibition of PCSK9 transcription in human HepG2 cells by AlphaLISA method; assay type: cell-based
[5] = biological target: Proprotein convertase subtilisin/kexin type 9 (Homo sapiens) (UniProt Q8NBP7); assay: Inhibition of PCSK9 (unknown origin) promoter activity expressed in HEK293 cells co-transfected with SV40 at 5 to 10 uM incubated for 24 hrs by dual luciferase assay; assay type: cell-based; settings: dose 5-10 µM
HepG2 [6] = assay: Induction of LDL uptake in HNF1alpha knockdown human HepG2 cells at 5 uM incubated for 3 hrs under dark condition by DiI-LDL DMEM staining based fluorescence microplate reader assay; assay type: functional, cell-based

## C=C1[C@@H](OC(C)=O)[C@H]2[C@@H](OC(C)=O)[C@](C)(OC(C)=O)C[C@]2(OC(C)=O)C(=O)[C@H](C)/C=C/C(C)(C)C(=O)[C@@H](OC(=O)C(C)C)[C@H]1OC(=O)C(C)C
[1]
  viability at 24 h, 20 µM: > 95%
[2]
  inhibition: 30.4%
HepG2 [3]
  Activity: Active
[4]
  inhibition: Dose-Dependent Effect

## C=C1[C@@H](OC(C)=O)[C@H]2[C@@H](OC(C)=O)[C@@H](C)C[C@]2(OC(C)=O)C(=O)[C@H](C)/C=C/C(C)(C)[C@H](OC(C)=O)[C@@H](OC(C)=O)[C@H]1OC(C)=O
[2]
  inhibition: 0.1%

## C=C1[C@@H](OC(C)=O)[C@H]2[C@@H](OC(C)=O)[C@@H](C)C[C@]2(OC(C)=O)C(=O)[C@H](C)/C=C/C(C)(C)C(=O)C[C@H]1OC(=O)C(C)C
[1]
  viability at 24 h, 20 µM: > 95%
[2]
  inhibition: 35.7%
HepG2 [3]
  Activity: Active
[4]
  inhibition: Dose-Dependent Effect

## C=C1[C@@H](OC(C)=O)[C@H]2[C@@H](OC(C)=O)[C@](C)(OC(C)=O)C[C@]2(OC(C)=O)C(=O)[C@H](C)[C@]2(C)O[C@H]2C(C)(C)[C@H](OC(C)=O)[C@@H](OC(=O)c2ccccc2)[C@H]1OC(=O)C(C)C
[2]
  inhibition: 0.7%

## C=C1[C@@H](OC(C)=O)[C@H]2[C@@H](OC(C)=O)[C@@H](C)C[C@]2(OC(C)=O)C(=O)[C@H](C)/C=C/C(C)(C)[C@H](O)C[C@H]1OC(=O)C(C)C
[2]
  inhibition: 5.7%

## C=C1[C@@H](OC(C)=O)[C@H]2[C@@H](OC(C)=O)[C@](C)(OC(C)=O)C[C@]2(OC(C)=O)C(=O)[C@H](C)[C@]2(C)O[C@H]2C(C)(C)[C@H](OC(C)=O)[C@@H](OC(C)=O)[C@H]1OC(=O)C(C)C
[2]
  inhibition: 1.2%

## C=C1[C@@H](OC(C)=O)[C@H]2[C@@H](OC(C)=O)[C@](C)(OC(=O)Cc3ccccc3)C[C@]2(OC(C)=O)C(=O)[C@H](C)/C=C/C(C)(C)[C@H](OC(=O)c2cccnc2)C[C@H]1OC(=O)C(C)C
[1]
  viability at 24 h, 20 µM: > 95%
[2]
  inhibition: 56.1%
[5]
  inhibition: Active
HepG2 [3]
  Activity: Active
HepG2 [6]
  Activity: Active
[4]
  inhibition: Dose-Dependent Effect

From ChEMBL document CHEMBL5523737, “Novel Jatrophane Diterpenoids from Euphorbia esula Promotes Lipid Clearance by Transcriptional Regulation of PCSK9” (J Med Chem, 2024)
